The source of these data is patent US20230365537A1, “POLO LIKE KINASE 4 INHIBITORS” (ORIC Pharmaceuticals, Inc., priority 2021, published 2023).

pIC50: −log10 of the molar value.

Test [1] has as its target human recombinant PLK4 (Homo sapiens (Human), UniProt O00444). The test is described as follows: PLK4 Biochemical Assay (ADP-Glo). Conditions: 0.5 nM PLK4, 8.0 µM ATP, 4.7 µM MBP, 6 hours at RT. The protocol:
(§1) Activity of human recombinant PLK4 (ThermoFisher, cat #PV6396) was measured by quantification of adenosine diphosphate (ADP) using the ADP-Glo Kinase Assay Kit (Promega, cat #V9102). […] 5 µL of 1.0 nM PLK4 protein in assay buffer (50 mM HEPES, pH 7.5, 0.01% Brij-35, 0.01% BSA, 10 mM MgCl2, 1 mM EGTA, 1 mM DTT) was added to the plates. Test compounds and PLK4 were incubated for 15 minutes at room temperature (RT). […] Reactions were stopped and the remaining ATP depleted by adding 10 µL of ADP-Glo reagent (Promega, cat#V912B) and incubating for 40 minutes at RT. The simultaneous conversion of the remaining ADP to ATP and measurement of the newly synthesized ATP was achieved by addition of 20 µL Kinase Detection reagent (Promega, cat #V914B), incubation for 30 min at RT, and luminescence detection using the EnVision plate reader (PerkinElmer). […] The IC50 values reported in Table 2 were determined using four parameter non-linear regression curve fit.
Background: In ADP-Glo the light output rises with the ADP produced.

Test [2] deals with human recombinant Aurora A (Homo sapiens (Human), UniProt O14965). Nature of the test: Aurora A Kinase Biochemical Assay (ADP-Glo). To be noted: ratio of Aurora A IC50 to PLK4 IC50 (selectivity). As for the experimental part: as §1, with “Aurora A” for “PLK4”, “#PR5935A)” for “#PV6396)”, “5.0” for “1.0”, “Aurora A” for “PLK4 protein”, “10uL” for “10 µL”
The target of test [3] is human recombinant Aurora B (Homo sapiens (Human), UniProt Q96GD4). Nature of the test: Aurora B Kinase Biochemical Assay (ADP-Glo). To be noted: ratio of Aurora B IC50 to PLK4 IC50 (selectivity). The protocol:
as §1, with “Aurora B” for “PLK4”, “#PR9210B)” for “#PV6396)”, “20” for “1.0”, “Aurora B” for “PLK4 protein”, “10uL” for “10 µL”

Sequence of human recombinant PLK4 (O00444 whole entry): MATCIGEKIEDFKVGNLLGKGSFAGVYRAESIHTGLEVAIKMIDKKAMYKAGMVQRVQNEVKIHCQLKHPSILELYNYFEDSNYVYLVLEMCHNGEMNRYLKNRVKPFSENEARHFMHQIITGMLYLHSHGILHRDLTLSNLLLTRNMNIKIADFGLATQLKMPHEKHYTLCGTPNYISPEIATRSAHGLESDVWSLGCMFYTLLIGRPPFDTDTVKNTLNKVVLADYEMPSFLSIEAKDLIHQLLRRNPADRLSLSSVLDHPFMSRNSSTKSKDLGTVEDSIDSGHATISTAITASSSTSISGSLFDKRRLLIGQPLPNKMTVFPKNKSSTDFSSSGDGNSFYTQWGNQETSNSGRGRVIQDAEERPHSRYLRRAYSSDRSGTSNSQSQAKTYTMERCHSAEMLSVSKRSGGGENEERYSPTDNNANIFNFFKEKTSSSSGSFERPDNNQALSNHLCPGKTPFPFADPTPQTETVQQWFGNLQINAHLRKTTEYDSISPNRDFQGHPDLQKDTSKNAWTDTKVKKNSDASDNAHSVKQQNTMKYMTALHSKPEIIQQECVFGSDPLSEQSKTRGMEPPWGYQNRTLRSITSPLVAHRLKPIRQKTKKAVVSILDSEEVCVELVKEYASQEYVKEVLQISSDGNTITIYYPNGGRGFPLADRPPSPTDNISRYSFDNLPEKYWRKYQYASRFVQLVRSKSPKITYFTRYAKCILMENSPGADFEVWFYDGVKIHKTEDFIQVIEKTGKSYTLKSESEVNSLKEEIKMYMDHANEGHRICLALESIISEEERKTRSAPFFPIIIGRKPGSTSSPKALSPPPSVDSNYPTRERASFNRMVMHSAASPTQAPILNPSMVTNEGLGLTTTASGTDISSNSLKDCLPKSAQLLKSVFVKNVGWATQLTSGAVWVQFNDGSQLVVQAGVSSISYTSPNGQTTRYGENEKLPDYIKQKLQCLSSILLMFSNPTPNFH
Sequence of human recombinant Aurora A (O14965 whole entry): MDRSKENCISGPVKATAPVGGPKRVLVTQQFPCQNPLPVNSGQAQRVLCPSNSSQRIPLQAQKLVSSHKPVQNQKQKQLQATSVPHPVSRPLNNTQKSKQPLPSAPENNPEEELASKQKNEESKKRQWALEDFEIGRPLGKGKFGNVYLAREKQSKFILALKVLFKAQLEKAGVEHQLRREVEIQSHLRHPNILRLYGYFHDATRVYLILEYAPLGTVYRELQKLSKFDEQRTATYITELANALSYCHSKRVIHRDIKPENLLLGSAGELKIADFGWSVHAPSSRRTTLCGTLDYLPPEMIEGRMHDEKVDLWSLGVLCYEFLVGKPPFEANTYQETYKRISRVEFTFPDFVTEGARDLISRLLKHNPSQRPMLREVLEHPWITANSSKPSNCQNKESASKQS
Sequence of human recombinant Aurora B (Q96GD4 whole entry): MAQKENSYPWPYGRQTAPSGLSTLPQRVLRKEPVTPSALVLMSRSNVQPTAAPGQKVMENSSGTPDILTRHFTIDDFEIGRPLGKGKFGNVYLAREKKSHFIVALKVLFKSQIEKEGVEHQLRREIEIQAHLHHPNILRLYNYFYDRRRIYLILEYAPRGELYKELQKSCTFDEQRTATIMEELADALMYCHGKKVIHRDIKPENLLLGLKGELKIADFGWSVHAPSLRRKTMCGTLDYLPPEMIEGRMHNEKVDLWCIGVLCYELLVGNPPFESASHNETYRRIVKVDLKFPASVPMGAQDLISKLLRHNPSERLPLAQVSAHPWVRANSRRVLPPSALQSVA

With `COc1ccc2c(c1)[C@]1(C[C@H]1c1ccc3c(Nc4cc(C(C)O)cnc4OC)n[nH]c3c1)C(=O)N2` (mixture of isomers) [Example 271, (1R,2S)-2-(3-{[5-(1-hydroxyethyl)-2-methoxypyridin-3-yl]amino}-1H-indazol-6-yl)-5′-methoxyspiro[cyclopropane-1,3′-indol]-2′(1′H)-one], the pIC50 (usually −log10 of the IC50, conventionally taken in molar units) in test [1] is 8.22. The “[Aurora A IC50 (nM)]/[PLK4 IC50 (nM)]” value in test [2] is given as 825.7199. Besides, the “[Aurora B IC50 (nM)]/[PLK4 IC50 (nM)]” value in test [3] stood at 492.8831.
Regarding `COc1ccc2c(c1)[C@]1(C[C@H]1c1ccc3c(Nc4ncncc4OC)n[nH]c3c1)C(=O)N2` (racemic) [Example 1, racemic-5′-Methoxy-2-{3-[(5-methoxypyrimidin-4-yl)amino]-1H-indazol-6-yl}spiro[cyclopropane-1,3′-indol]-2′(1′H)-one], the pIC50 in test [1] was 8.46.
Take `COc1ccc2c(c1)[C@]1(C[C@H]1c1ccc3c(Nc4ncncc4C)n[nH]c3c1)C(=O)N2` (racemic) [Example 2, racemic-5′-Methoxy-2-{3-[(5-methylpyrimidin-4-yl)amino]-1H-indazol-6-yl)spiro[cydopropane-1,3′-indol]-2′(1′H)-one]: the negative-log IC50 (pIC50) in test [1] is 7.53. In addition, the “[Aurora A IC50 (nM)]/[PLK4 IC50 (nM)]” value in test [2] is listed as 318.03. Besides, the “[Aurora B IC50 (nM)]/[PLK4 IC50 (nM)]” value in test [3] is given as 15.6544.
Regarding `COc1ccc2c(c1)[C@]1(C[C@H]1c1ccc3c(Nc4ncncc4Cl)n[nH]c3c1)C(=O)N2` (racemic) [Example 3, racemic-2-{3-[(5-Chloropyrimidin-4-yl)amino]-1H-indazol-6-yl}-5′-methoxyspiro[cydopropane-13′-indol]-2′(1′H)-one], the pIC50 in test [1] was 8.00.
With `COc1ccc2c(c1)[C@]1(C[C@H]1c1ccc3c(Nc4nccc5c4OC[C@H]5CO)n[nH]c3c1)C(=O)N2` (single isomer, unassigned) [Example 34], in test [1], the pIC50 was 8.49. In addition, the “[Aurora A IC50 (nM)]/[PLK4 IC50 (nM)]” value in test [2] stood at 893.3126. The “[Aurora B IC50 (nM)]/[PLK4 IC50 (nM)]” value in test [3] amounted to 19.96.
Consider `COc1ccc2c(c1)[C@]1(C[C@H]1c1ccc3c(Nc4nc(C5CCOC5)ncc4OC)n[nH]c3c1)C(=O)N2` (single isomer, unassigned) [Example 200], for which, in test [1], the negative-log IC50 (pIC50) was 8.49. Moreover, the “[Aurora A IC50 (nM)]/[PLK4 IC50 (nM)]” value in test [2] was found to be 906.0197. Besides, the “[Aurora B IC50 (nM)]/[PLK4 IC50 (nM)]” value in test [3] is on record as 523.3415.
Turning to `COc1ccc2c(c1)[C@]1(C[C@H]1c1ccc3c(Nc4nc(C)nc5c4C(C)SC5)n[nH]c3c1)C(=O)N2` (single isomer, unassigned) [Example 211], in test [1], the negative-log IC50 (pIC50) was 8.06. In addition, the “[Aurora A IC50 (nM)]/[PLK4 IC50 (nM)]” value in test [2] worked out at 531.9935. Moreover, the “[Aurora B IC50 (nM)]/[PLK4 IC50 (nM)]” value in test [3] was found to be 218.4107.
With `COc1ccc2c(c1)[C@]1(C[C@H]1c1ccc3c(Nc4cccc5c4OCC5O)n[nH]c3c1)C(=O)N2` (stereo in doubt) [Example 27, 2-{3-[(3-hydroxy-2,3-dihydro-1-benzofuran-7-yl)amino]-1H-indazol-6-yl)-5′-methoxyspiro[cyclopropane-1,3′-indol]-2′(1′H)-one], the pIC50 in test [1] was 8.68.
The same measure, in the same setting: the result for `COc1ccc2c(c1)[C@]1(C[C@H]1c1ccc3c(Nc4cccc5c4OC[C@H]5O)n[nH]c3c1)C(=O)N2` (stereo in doubt) [Example 28] reads 9.43.
On to `COc1ccc2c(c1)[C@]1(C[C@H]1c1ccc3c(Nc4ncncc4OC)n[nH]c3c1)C(=O)N2` [Example 4, (1R,2S)-5′-Methoxy-2-{3-[(5-methoxypyrimidin-4-yl)amino]-1H-indazol-6-yl}spiro[cyclopropane-1,3′-indol]-2′(1′H)-one], for which, in test [1], the pIC50 was 8.40. In addition, in test [2], the “[Aurora A IC50 (nM)]/[PLK4 IC50 (nM)]” value was 465.4867. Moreover, the “[Aurora B IC50 (nM)]/[PLK4 IC50 (nM)]” value in test [3] was 11.45.
As for `CCOc1cncnc1Nc1n[nH]c2cc([C@@H]3C[C@@]34C(=O)Nc3ccc(OC)cc34)ccc12` [Example 5, (1R,2S)-2-[3-[(5-ethoxypyrimidin-4-yl)amino]-1H-indazol-6-yl]-5′-methoxy-spiro[cyclopropane-1,3′-indoline]-2′-one], the negative-log IC50 (pIC50) in test [1] is 8.66.
Still for that read-out and setting: the result for `COc1ccc2c(c1)[C@]1(C[C@H]1c1ccc3c(Nc4ncncc4C4CC4)n[nH]c3c1)C(=O)N2` [Example 6, (1R,2S)-2-{3-[(5-cyclopropylpyrimidin-4-yl)amino]-1H-indazol-6-yl}-5′-methoxyspiro[cyclopropane-1,3′-indol]-2′(1′H)-one] reads 7.74.
Regarding `COc1ccc2c(c1)[C@]1(C[C@H]1c1ccc3c(Nc4ncncc4Cl)n[nH]c3c1)C(=O)N2` [Example 7], the negative-log IC50 (pIC50) in test [1] was 8.34. The “[Aurora A IC50 (nM)]/[PLK4 IC50 (nM)]” value in test [2] is 693.5732. Also, the “[Aurora B IC50 (nM)]/[PLK4 IC50 (nM)]” value in test [3] was 47.27.
In the same order, the values of `COc1ccc2c(c1)[C@@]1(C[C@@H]1c1ccc3c(Nc4ncncc4OC)n[nH]c3c1)C(=O)N2` [Example 8, (IS,2R)-5′-Methoxy-2-{3-[(5-methoxypyrimidin-4-yl)amino]-1H-indazol-6-yl}spiro[cyclopropane-1,3′-indol]-2′(1′H)-one] are 6.31, 17.61 and 32.99.
Take `COc1ccc2c(c1)[C@]1(C[C@H]1c1ccc3c(Nc4nccnc4OC)n[nH]c3c1)C(=O)N2` [Example 13, (1R,2S)-5′-methoxy-2-{3-[(3-methoxypyrazin-2-yl)amino)-1H-indazol-6-yl}spiro[cyclopropane-1,3′-indol]-2′(1′H)-one]: the pIC50 in test [1] is 8.52. Further, in test [2], the “[Aurora A IC50 (nM)]/[PLK4 IC50 (nM)]” value is given as 667.5585. Further, the “[Aurora B IC50 (nM)]/[PLK4 IC50 (nM)]” value in test [3] was determined as 10.3.
Regarding `COc1ccc2c(c1)[C@]1(C[C@H]1c1ccc3c(Nc4ncnc5c4CCC5)n[nH]c3c1)C(=O)N2` [Example 15, (1R,2S)-2-{3-[(6,7-dihydro-5H-cyclopenta[d]pyrimidin-4-yl)amino]-1H-indazol-6-yl}-5′-methoxyspiro[cyclopropane-1,3′-indol]-2′(1′H)-one], the negative logarithm of the IC50 (pIC50) in test [1] is 7.34.
The same measure, in the same setting: for `COc1ccc2c(c1)[C@]1(C[C@H]1c1ccc3c(Nc4cnccc4OC)n[nH]c3c1)C(=O)N2` [Example 18] the value was 7.64.
Still for that read-out and setting: the result for `COc1ccc2c(c1)[C@]1(C[C@H]1c1ccc3c(Nc4ccncc4OC)n[nH]c3c1)C(=O)N2` [Example 19, (1R,2S)-5′-methoxy-2-{3-[(3-methoxypyridin-4-yl)amino]-1H-indazol-6-yl}spiro[cyclopropane-1,3′-indol]-2′(1′H)-one] reads 7.61.
Still for that read-out and setting: for `COc1ccc2c(c1)[C@]1(C[C@H]1c1ccc3c(Nc4c(C)nn(C)c4C)n[nH]c3c1)C(=O)N2` [Example 21, (1R,2S)-5′-methoxy-2-{3-[(1,3,5-trimethyl-1H-pyrazol-4-yl)amino]-1H-indazol-6-yl)spiro[cyclopropane-1,3′-indol]-2′(1′H)-one] the value was 7.38.
On to `COc1ccc2c(c1)[C@]1(C[C@H]1c1ccc3c(Nc4ncncc4C(F)(F)F)n[nH]c3c1)C(=O)N2` [Example 22, (1R,2S)-5′-methoxy-2-(3-{[5-(trifluoromethyl)pyrimidin-4-yl]amino}-1H-indazol-6-yl)spiro[cyclopropane-1,3′-indol]-2′(1′H)-one], for which the pIC50 in test [1] was 7.40.
Regarding `COc1ccc2c(c1)[C@]1(C[C@H]1c1ccc3c(Nc4cccnc4OC)n[nH]c3c1)C(=O)N2` [Example 24], the negative-log IC50 (pIC50) in test [1] is 8.65.
The same measure, in the same setting: the result for `COc1ccc2c(c1)[C@]1(C[C@H]1c1ccc3c(Nc4cccc5ccoc45)n[nH]c3c1)C(=O)N2` [Example 26] reads 8.41.
The same measure, in the same setting: the result for `COc1ccc2c(c1)[C@]1(C[C@H]1c1ccc3c(Nc4cccc5c4OC[C@@H]5O)n[nH]c3c1)C(=O)N2` [Example 29, (1R,2S)-2-(3-{[(3R)-3-hydroxy-2,3-dihydro-1-benzofuran-7-yl]amino)-1H-indazol-6-yl)-5′-methoxyspiro[cyclopropane-1,3′-indol]-2′(1′H)-one] reads 8.22.
